pIC50: −log10 of the molar value.
Key:
CRBN/DDB1 = target: T1, CRBN/DDB1 (Homo sapiens, UniProt Q96SW2); type: binding; conditions: HTRF, Cy5-labeled Thalidomide probe
T1 construct: purchased Wuxi RP210521GA
Description: The binding potency was determined using HTRF assay technology (Perkin Elmer). Compounds were serially diluted in DMSO and 0.2 μL volume was transferred to white 384-well plate.

ER [1] = target: T2, ER (Homo sapiens, UniProt P03372); test: In-cell Western (ICW) ER degradation assay in T47D cells; type: cell-based; conditions: T47D cells, 16 hrs; for Dmax: T47D, read-out: ER T47D ICW Dmax (%)
T2 construct: endogenous in cells; probably T47D or MCF-7
T2 sequence (P03372 1-595): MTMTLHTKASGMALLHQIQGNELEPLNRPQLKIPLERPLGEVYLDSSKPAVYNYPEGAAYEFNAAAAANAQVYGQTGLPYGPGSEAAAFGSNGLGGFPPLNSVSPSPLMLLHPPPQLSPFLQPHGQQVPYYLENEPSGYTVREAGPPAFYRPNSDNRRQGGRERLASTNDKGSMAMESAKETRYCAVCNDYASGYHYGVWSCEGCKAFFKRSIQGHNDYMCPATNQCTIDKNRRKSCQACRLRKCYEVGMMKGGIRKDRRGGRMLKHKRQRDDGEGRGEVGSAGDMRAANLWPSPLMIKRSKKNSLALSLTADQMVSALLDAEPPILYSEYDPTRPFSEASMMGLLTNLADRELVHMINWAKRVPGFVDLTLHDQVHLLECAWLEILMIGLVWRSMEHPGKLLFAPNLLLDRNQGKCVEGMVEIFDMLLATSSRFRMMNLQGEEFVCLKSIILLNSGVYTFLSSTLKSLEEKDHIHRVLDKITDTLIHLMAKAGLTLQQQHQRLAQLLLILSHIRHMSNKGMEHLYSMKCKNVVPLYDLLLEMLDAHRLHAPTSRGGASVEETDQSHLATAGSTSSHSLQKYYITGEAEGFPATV
Description: (§1) ERa degradative activity of compounds can be assessed in MCF-7 and T47D Cells. MCF-7 and T47D cell are seeded and are subsequently treated with the compounds at certain concentrations (e.g., 0.02 to 300 nM). DMSO can be used as vehicle control. Cells are fixed and are blocked with Intercept (PBS) Blocking Buffer (e.g., Li—COR, Odyssey Blocking Buffer), and are stained with ER (e.g., 1:500, Cell signaling) primary antibody for overnight at cold room. Secondary Antibody (e.g., IRDye 800CW Goat anti-Rabbit IgG) and CellTag 700 Stain are added in Intercept (PBS) Blocking Buffer. Finally, cell plate is placed in incubator to dry. Image and signal are captured on Odyssey® DLx Imaging System.
(§2) In-cell Western (ICW) assays in MCF-7 and T47D cell lines.
(§3) Procedures for ICW assays
(§4) In vitro Assay: MCF-7 and T47D ICW assay
(§5) Day 3: After 16 hrs of compounds treatment, cells were fixed by 4% PFA and permeabilized with elution buffer (0.1% Triton X-100 in 1% PBS Solution). Subsequently, cells were blocked with Intercept (PBS) Blocking Buffer (Li—COR, Odyssey Blocking Buffer), and were stained with ER (1:500, Cell signaling) primary antibody for overnight at cold room.
(§6) Day 4: Remove the buffer, add IRDye 800CW Goat anti-Rabbit IgG Secondary Antibody (1:2000) and CellTag 700 Stain (1:500) in Intercept (PBS) Blocking Buffer. Finally, cell plate is placed in incubator to dry. Image and signal were captured on Odyssey® DLx Imaging System.

ER [2] = target: T2, ER; test: In-cell Western (ICW) ER degradation assay in MCF-7 cells; type: cell-based; conditions: 16 hrs; for Dmax: MCF7, MCF-7 cells, read-out: ER MCF7 ICW Dmax (%); for DC50: read-out: ER MCF7 ICW DC50
Description: as §1, §2, §3, §4, §5, §6

T1 sequence (Q96SW2 whole entry): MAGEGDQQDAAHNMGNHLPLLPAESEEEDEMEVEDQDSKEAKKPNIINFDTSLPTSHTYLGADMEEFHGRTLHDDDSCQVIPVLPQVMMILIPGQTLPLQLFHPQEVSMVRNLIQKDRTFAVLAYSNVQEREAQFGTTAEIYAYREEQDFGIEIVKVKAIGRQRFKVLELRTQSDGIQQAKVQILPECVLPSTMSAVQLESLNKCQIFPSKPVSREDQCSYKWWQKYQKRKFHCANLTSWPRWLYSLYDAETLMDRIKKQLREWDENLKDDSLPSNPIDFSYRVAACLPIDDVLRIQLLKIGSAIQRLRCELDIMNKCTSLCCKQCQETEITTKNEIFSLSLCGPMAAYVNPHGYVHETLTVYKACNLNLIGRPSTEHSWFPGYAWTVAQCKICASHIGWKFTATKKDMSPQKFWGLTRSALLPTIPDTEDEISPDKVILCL
T1 sequence (Q16531 whole entry partner): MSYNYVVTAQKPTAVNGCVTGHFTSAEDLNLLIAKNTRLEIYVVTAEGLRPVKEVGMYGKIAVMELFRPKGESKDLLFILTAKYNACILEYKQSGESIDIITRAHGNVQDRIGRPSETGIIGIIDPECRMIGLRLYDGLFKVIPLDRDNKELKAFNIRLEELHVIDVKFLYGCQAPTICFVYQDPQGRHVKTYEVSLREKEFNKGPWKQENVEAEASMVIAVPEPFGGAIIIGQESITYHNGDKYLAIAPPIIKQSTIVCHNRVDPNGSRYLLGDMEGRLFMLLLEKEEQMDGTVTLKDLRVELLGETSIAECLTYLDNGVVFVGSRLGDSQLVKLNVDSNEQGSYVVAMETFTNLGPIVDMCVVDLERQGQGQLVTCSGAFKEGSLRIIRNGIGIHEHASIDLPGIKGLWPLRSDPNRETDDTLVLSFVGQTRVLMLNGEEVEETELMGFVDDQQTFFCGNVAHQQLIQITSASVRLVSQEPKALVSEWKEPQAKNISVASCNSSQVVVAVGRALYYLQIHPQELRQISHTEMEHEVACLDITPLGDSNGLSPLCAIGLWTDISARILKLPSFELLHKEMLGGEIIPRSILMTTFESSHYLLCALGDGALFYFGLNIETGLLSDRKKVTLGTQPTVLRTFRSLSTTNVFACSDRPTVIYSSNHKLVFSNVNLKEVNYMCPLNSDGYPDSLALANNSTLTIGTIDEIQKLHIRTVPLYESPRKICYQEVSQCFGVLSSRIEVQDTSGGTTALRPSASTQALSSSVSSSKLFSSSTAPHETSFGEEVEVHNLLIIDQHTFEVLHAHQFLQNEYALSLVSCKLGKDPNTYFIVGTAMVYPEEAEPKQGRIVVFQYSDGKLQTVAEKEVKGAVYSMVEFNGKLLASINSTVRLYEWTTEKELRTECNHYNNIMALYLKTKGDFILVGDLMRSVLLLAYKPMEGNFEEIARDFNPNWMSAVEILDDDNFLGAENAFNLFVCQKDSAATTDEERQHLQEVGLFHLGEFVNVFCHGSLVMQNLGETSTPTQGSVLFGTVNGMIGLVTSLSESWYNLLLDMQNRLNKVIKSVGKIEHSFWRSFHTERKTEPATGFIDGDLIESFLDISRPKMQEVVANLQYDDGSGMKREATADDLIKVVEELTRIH

| Compound | pIC50 (CRBN/DDB1) | DC50 (ER [1]) [µM] | Dmax (ER [1]) [%] | Dmax (ER [2]) [%] | DC50 (ER [2]; MCF-7 cells) [µM] | ER T47D ICW Dmax (%) (ER [1]) | ER MCF7 ICW Dmax (%) (ER [2]; MCF-7 cells) |
| --- | --- | --- | --- | --- | --- | --- | --- |
| C[C@H]1Cc2c(ccc3[nH]ncc23)[C@H](c2ccc(N3CCC4(CC3)CC(CN3CCC(c5ccc(NC6CCC(=O)NC6=O)cc5)CC3)C4)cn2)N1CC(F)(F)F (stereo in doubt) [Compound A10, 3-((4-(1-((7-(6-((6R,8S)-8-methyl-7-(2,2,2-trifluoroethyl)-6,7,8,9-tetrahydro-3H-pyrazolo[4,3-f]isoquinolin-6-yl)pyridin-3-yl)-7-azaspiro[3.5]nonan-2-yl)methyl)piperidin-4-yl)phenyl)amino)piperidine-2,6-dione] | 6.30 to 7.30 | < 0.001 | 50 to 75 | 50 to 75 | < 0.001 | – | – |
| C[C@@H]1Cc2c(ccc3[nH]ncc23)[C@@H](c2c(F)cc(N3CCC(CN4CCN5c6ccc7c(c6OC[C@@H]5C4)CN(C4CCC(=O)NC4=O)C7=O)CC3)cc2F)N1CC(F)F (stereo partly drawn) [Compound A2, 3-((S)-7-((1-(4-((6S,8R)-7-(2,2-difluoroethyl)-8-methyl-6,7,8,9-tetrahydro-3H-pyrazolo[4,3-f]isoquinolin-6-yl)-3,5-difluorophenyl)piperidin-4-yl)methyl)-1-oxo-1,3,5,5a,6,7,8,9-octahydro-2H-pyrazino[1′,2′:4,5][1,4]oxazino[2,3-e]isoindol-2-yl)piperidine-2,6-dione] | 6.30 to 7.30 | < 0.001 | 50 to 75 | 50 to 75 | < 0.001 | – | – |
| C[C@H]1Cc2c(ccc3[nH]ncc23)[C@@H](c2ccc(N3CC4(CCC(CN5CCN6c7ccc8c(c7OC[C@@H]6C5)CN([C@@H]5CCC(=O)NC5=O)C8=O)CC4)C3)nc2)N1CC(F)(F)F (stereo in doubt) [Compound A18, (R)-3-((S)-7-((2-(5-((6S,8S)-8-methyl-7-(2,2,2-trifluoroethyl)-6,7,8,9-tetrahydro-3H-pyrazolo[4,3-f]isoquinolin-6-yl)pyridin-2-yl)-2-azaspiro[3.5]nonan-7-yl)methyl)-1-oxo-1,3,5,5a,6,7,8,9-octahydro-2H-pyrazino[1′,2′:4,5][1,4]oxazino[2,3-e]isoindol-2-yl)piperidine-2,6-dione] | 6.30 to 7.30 | 0.001 to 0.01 | 50 to 75 | 50 to 75 | 0.001 to 0.01 | – | – |
| C[C@H]1Cc2c(ccc3[nH]ncc23)[C@H](c2ccc(N3CCC4(CC3)CC(CN3CCN(c5ccc(C(=O)NC6CCC(=O)NC6=O)nc5)CC3)C4)cn2)N1CC(F)(F)F (stereo in doubt) [Compound A9, N-(2,6-dioxopiperidin-3-yl)-5-(4-((7-(6-((6R,8S)-8-methyl-7-(2,2,2-trifluoroethyl)-6,7,8,9-tetrahydro-3H-pyrazolo[4,3-f]isoquinolin-6-yl)pyridin-3-yl)-7-azaspiro[3.5]nonan-2-yl)methyl)piperazin-1-yl)picolinamide] | 6.30 to 7.30 | < 0.001 | 50 to 75 | 50 to 75 | < 0.001 | – | – |
| (S)-3-((R)-7-((1-(5-((6S,8R)-8-methyl-7- (2,2,2-trifluoroethyl)-6,7,8,9-tetrahydro-3H- pyrazolo[4,3-f]isoquinolin-6-yl)pyridin-2- yl)piperidin-4-yl)methyl)-1-oxo- 1,3,5,5a,6,7,8,9-octahydro-2H- pyrazino[1′,2′:4,5][1,4]oxazino[2,3-c]isoindol- 2-yl)piperidine-2,6-dione [Compound A23] | 5.30 to 6.30 | 0.001 to 0.01 | – | – | 0.001 to 0.01 | B (“B”: >50% and <75%) | B (“B”: >50% and <75%) |
| C[C@H]1Cc2c(ccc3[nH]ncc23)[C@H](c2ccc(N3CCC4(CC3)CC(CN3CCN5c6cc7c(cc6OC[C@@H]5C3)C(=O)N([C@@H]3CCC(=O)NC3=O)C7)C4)cn2)N1CC1(F)CC1 (stereo in doubt) [Compound A13, (R)-3-((S)-3-((7-(6-((6R,8S)-7-((1-fluorocyclopropyl)methyl)-8-methyl-6,7,8,9-tetrahydro-3H-pyrazolo[4,3-f]isoquinolin-6-yl)pyridin-3-yl)-7-azaspiro[3.5]nonan-2-yl)methyl)-8-oxo-1,2,3,4,4a,5,8,10-octahydro-9H-pyrazino[1′,2′:4,5][1,4]oxazino[2,3-f]isoindol-9-yl)piperidine-2,6-dione] | > 7.30 | < 0.001 | 50 to 75 | 25 to 50 | < 0.001 | – | – |
| C[C@@H]1Cc2c(ccc3[nH]ncc23)[C@@H](c2ccc(N3CCC4(CC3)CC(CN3CCN5c6cc7c(cc6OC[C@H]5C3)C(=O)N([C@@H]3CCC(=O)NC3=O)C7)C4)cn2)N1CC1(F)CC1 [Compound A14, (R)-3-((R)-3-((7-(6-((6S,8R)-7-((1-fluorocyclopropyl)methyl)-8-methyl-6,7,8,9-tetrahydro-3H-pyrazolo[4,3-f]isoquinolin-6-yl)pyridin-3-yl)-7-azaspiro[3.5]nonan-2-yl)methyl)-8-oxo-1,2,3,4,4a,5,8,10-octahydro-9H-pyrazino[1′,2′:4,5][1,4]oxazino[2,3-f]isoindol-9-yl)piperidine-2,6-dione] | 6.30 to 7.30 | < 0.001 | > 75 | 50 to 75 | < 0.001 | – | – |
| C[C@H]1Cc2c(ccc3[nH]ncc23)[C@@H](c2ccc(N3CCC(CN4CCN5c6cc7c(cc6OC[C@H]5C4)C(=O)N([C@@H]4CCC(=O)NC4=O)C7)CC3)nc2)N1CC(F)(F)F (stereo in doubt) [Compound A20, (R)-3-((R)-3-((1-(5-((6S,8S)-8-methyl-7-(2,2,2-trifluoroethyl)-6,7,8,9-tetrahydro-3H-pyrazolo[4,3-f]isoquinolin-6-yl)pyridin-2-yl)piperidin-4-yl)methyl)-8-oxo-1,2,3,4,4a,5,8,10-octahydro-9H-pyrazino[1′,2′:4,5][1,4]oxazino[2,3-f]isoindol-9-yl)piperidine-2,6-dione] | > 7.30 | 0.01 to 0.1 | 50 to 75 | 25 to 50 | 0.01 to 0.1 | – | – |
